Measurements published in publication PMC3542197, “Downregulation of the Mitochondrial Phosphatase PTPMT1 Is Sufficient to Promote Cancer Cell Death” (PLoS ONE, 2013).
Where a name gives a salt, the structure may show the parent alone.

Target: T1, PTPMT1 (Protein Tyrosine Phosphatase localized to the Mitochondrion 1) (Homo sapiens, UniProt Q8WUK0)
T1 construct: human PTPMT1 open reading frame cloned into pGEX-KG, purified using glutathione-conjugated sepharose
T1 sequence (Q8WUK0 1-201): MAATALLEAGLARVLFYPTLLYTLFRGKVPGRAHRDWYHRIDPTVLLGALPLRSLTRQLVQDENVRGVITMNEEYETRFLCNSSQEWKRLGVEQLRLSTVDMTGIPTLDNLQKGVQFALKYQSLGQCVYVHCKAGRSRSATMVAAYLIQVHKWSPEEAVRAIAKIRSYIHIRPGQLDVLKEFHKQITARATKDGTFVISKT
Assay: in vitro phosphatase assay with recombinant enzyme, OMFP substrate, fluorescence readout
Assay type: biochemical

CCCCC(CC)CNC(=N)NC(=N)NCCCCCCNC(=N)NC(=N)NCC(CC)CCCC (stereo not shown) [alexidine dihydrochloride]
IC50: 2500 nM
